# “And” between values parts separate entries of the source, which are not always exact repeats. Identical values can stand only once.
# System: AMO-1 xenografts
# Test: AMO-1 xenograft efficacy (tumor volume, body weight); as to Mortality Observation Day 34: key: EUTV: Euthanized: tumor volume; as to Mortality Observation Day 36: key: EUTV: Euthanized: tumor volume; as to Mortality Observation Day 68, individual animal: key: EUTV: Euthanized: tumor volume
# Type: in vivo, mouse
# Experimental: All animal studies were conducted in accordance with the guidelines approved by the Institutional Animal Care and Use Committees of AbbVie. The research protocol was approved by In Vivo Pharmacology at AbbVie prior to study initiation but was not publicly registered or disclosed. Female C.B-17 SCID-beige mice (AMO-1, OPM-2, NCI-H929, and OCI-AML2 xenografts) and female NSG mice (MV4-11-Red.Fluc systemic) were purchased from Charles River Laboratories (Wilmington, MA). Animals were housed in a light cycle-controlled room with HEPA filtration at 22 °C. Animals had nesting and climbing cage topper as the primary environmental enrichment. Animals were inoculated subcutaneously in the right flank with 5 × 10^6 (AMO-1, OPM-2, NCI-H929, and OCI-AML2) or intravenous (IV) with 5 × 10^6 (MV4-11-Red.Fluc). The inoculation volume (0.2 mL) comprised a 50:50 mixture of cells in growth media and Matrigel (BD Biosciences) for subcutaneous injections and 100% phosphate-buffered saline for IV administration. All cell lines used in this publication were authenticated using IDEXX for STR profiling as well as their IMPACT and human IMPACT panels for pathogen screening. Electronic calipers were used to measure the length and width of each tumor 2 to 3 times per week. Tumor volume was estimated by applying the following equation: volume = length × width^2/2. All groups remained blinded during measurements and dosing; only veterinary staff were aware of group identity. When tumors reached approximately 200 mm^3, mice were randomized by match and distributed into treatment and control groups. All xenograft trials were conducted using 5 to 10 mice per group, and all mice were ear tagged and monitored individually throughout the studies. […] Tumor burden in the systemic MV4-11-Red.Fluc experiment was measured using an IVIS® spectrum from PerkinElmer by taking the total photon flux of the entire dorsal side of an individual mouse. […] A background control mouse that was tumor naive but received D-Luciferin was placed in the upper left corner of each image. The total flux from this animal was subtracted from the total flux of each animal present in the image.
# For in vivo studies, maximal tumor growth inhibition (TGI) was calculated as the greatest treatment response using the following equation: Maximal TGI = (1 − mean tumor volume of the treated group/mean tumor volume of the vehicle control group) × 100. The tumor growth delay (TGD) percentage was determined as the percentage increase of the median time period for the treatment group to reach an arbitrary tumor volume of 1000 mm^3 relative to the vehicle control group. […] A power analysis was conducted using historical data to determine the number of animals required to yield significance of 0.05 at a 30% difference. […] Data from experiments in vivo were analyzed using the student’s t-test for TGI values and the Mann–Whitney U test for TGD using Excel and GraphPad Prism. Fisher’s exact test was used to probe significance of differences in response frequency.
# [1] = 25 mg/kg Q7Dx2 IV, Day 53, SCID-beige female mice
# [2] = 25 mg/kg Q7Dx2 IV, Day 60, SCID-beige female mice
# [3] = 25 mg/kg Q7Dx2 IV, SCID-beige female mice, Day 21
# [4] = 25 mg/kg Q7Dx2 IV, SCID-beige female mice, Day 24
# [5] = 25 mg/kg Q7Dx2 IV, SCID-beige female mice, Day 26
# [6] = 25 mg/kg Q7Dx2 IV, SCID-beige female mice, Day 28
# [7] = 25 mg/kg Q7Dx2 IV, SCID-beige female mice, Day 34, surviving animals
# [8] = 25 mg/kg Q7Dx2 IV, SCID-beige female mice, Day 43
# [9] = 25 mg/kg Q7Dx2 IV, SCID-beige female mice, Day 50
# [10] = 25 mg/kg Q7Dx2 IV, SCID-beige female mice, Day 55, remaining animals
# [11] = 25 mg/kg Q7Dx2 IV, SCID-beige female mice, Day 62
# [12] = 25 mg/kg Q7Dx2 IV, SCID-beige female mice, Day 64
# [13] = 25 mg/kg Q7Dx2 IV, SCID-beige female mice, Day 68
# [14] = 25 mg/kg Q7Dx2 IV, SCID-beige female mice, Day 68, surviving animals
# [15] = 25 mg/kg Q7Dx2 IV, SCID-beige mice, Day 13 (measure date 10/25/2017, dosing begin 10/26/2017)
structure (smiles),measurement,setting,value
Cc1c(Cl)c2c(Cl)c(C)c1-c1c(-c3ccc(F)cc3)sc3ncnc(c13)O[C@@H](C(=O)O)Cc1cc(ccc1OCc1ccnc(-c3ccc(OC[C@H]4COCCO4)cc3)n1)OC[C@@H](CN1CCN(C)CC1)O2 [Compound A-1747745.0],Xenograft AMO-1 (DSMZ) (mm³) Day 34 Mean,"6.25 mg/kg QDx1 IV, Day 34, group mean",1592.98 mm³
same,Xenograft AMO-1 (DSMZ) (mm³) Day 34 Median,"6.25 mg/kg QDx1 IV, Day 34, group median",1465.20 mm³
same,Mortality Observation Day 34,"6.25 mg/kg QDx1 IV, Day 34, per animal",EUTV
same,Xenograft AMO-1 (DSMZ) (mm³) Day 36 (individual animals),"6.25 mg/kg QDx1 IV, Day 36, SCID-beige female mice, tumor volume per animal (remaining animals)",1617 mm³ and 1642 mm³ and 1750 mm³ and 2010 mm³
same,"Xenograft AMO-1 (DSMZ) (mm³) Day 36, Mean","6.25 mg/kg QDx1 IV, Day 36, group mean of remaining animals",1754.60 mm³
same,"Xenograft AMO-1 (DSMZ) (mm³) Day 36, Median","6.25 mg/kg QDx1 IV, Day 36, group median of remaining animals",1695.89 mm³
same,Mortality Observation Day 36,"6.25 mg/kg QDx1 IV, Day 36, per animal",EUTV
same,Mortality Observation Day 19,"25 mg/kg Q7Dx2 IV, AMO-1 xenograft, SCID-beige female mice, individual animals",MORB
same,% T/C (mean),"25 mg/kg Q7Dx2 IV, Day 13",102.38%
same,% T/C (median),"25 mg/kg Q7Dx2 IV, Day 13",100.76%
same,% T/C (mean),"25 mg/kg Q7Dx2 IV, Day 19",6.47%
same,% T/C (median),"25 mg/kg Q7Dx2 IV, Day 19",6.98%
same,% T/C (mean),"25 mg/kg Q7Dx2 IV, Day 21",4.61%
same,% T/C (median),"25 mg/kg Q7Dx2 IV, Day 21",4.91%
same,% T/C (mean),"25 mg/kg Q7Dx2 IV, Day 24",1.88%
same,% T/C (median),"25 mg/kg Q7Dx2 IV, Day 24",1.98%
same,% T/C (mean),"25 mg/kg Q7Dx2 IV, Day 26",1.29%
same,% T/C (median),"25 mg/kg Q7Dx2 IV, Day 26",1.46%
same,% T/C (mean),"25 mg/kg Q7Dx2 IV, Day 28",0.52%
same,% T/C (median),"25 mg/kg Q7Dx2 IV, Day 28",0.52%
same,Xenograft AMO-1 (DSMZ) (mm³) Day 53 (individual animals),[1],15 mm³
same,Xenograft AMO-1 (DSMZ) (mm³) Day 53 Mean,[1],15.19 mm³
same,Xenograft AMO-1 (DSMZ) (mm³) Day 53 Median,[1],15.19 mm³
same,Xenograft AMO-1 (DSMZ) (mm³) Day 60 (individual animals),[2],155 mm³ and 71 mm³
same,"Xenograft AMO-1 (DSMZ) (mm³) Day 60, Mean",[2],112.89 mm³
same,"Xenograft AMO-1 (DSMZ) (mm³) Day 60, Median",[2],112.89 mm³
same,Xenograft AMO-1 (DSMZ) Day 19 Mean,"25 mg/kg Q7Dx2 IV, SCID-beige female mice, Day 19, group mean tumor volume",25.56 mm³
same,Xenograft AMO-1 (DSMZ) Day 19 Median,"25 mg/kg Q7Dx2 IV, SCID-beige female mice, Day 19, group median tumor volume",25.56 mm³
same,"Xenograft AMO-1 (DSMZ) (mm³) Day 19, individual animals","25 mg/kg Q7Dx2 IV, SCID-beige female mice, Day 19, individual tumor volumes",18 mm³ and 33 mm³ and MORB
same,"Mortality Observation Day 21, individual animals",[3],STOX (2×) and MORB (2×)
same,"Xenograft AMO-1 (DSMZ) Day 21, Mean",[3],29.76 mm³
same,"Xenograft AMO-1 (DSMZ) Day 21, Median",[3],29.76 mm³
same,"Xenograft AMO-1 (DSMZ) tumor volume Day 21, individual animals",[3],19 mm³ and 40 mm³
same,"Xenograft AMO-1 (DSMZ) (mm³) Day 24, individual animals",[4],17 mm³ and 19 mm³
same,"Xenograft AMO-1 (DSMZ) tumor volume Day 24, Mean",[4],17.90 mm³
same,"Xenograft AMO-1 (DSMZ) tumor volume Day 24, Median",[4],17.90 mm³
same,"Xenograft AMO-1 (DSMZ) tumor volume Day 26, Mean",[5],17.97 mm³
same,"Xenograft AMO-1 (DSMZ) tumor volume Day 26, Median",[5],17.97 mm³
same,"Xenograft AMO-1 (DSMZ) tumor volume Day 26, individual animals",[5],18 mm³
same,"Xenograft AMO-1 (DSMZ) (mm³) Day 28, individual animals",[6],11 mm³
same,Xenograft AMO-1 (DSMZ) Day 28 Mean,[6],11.33 mm³
same,Xenograft AMO-1 (DSMZ) Day 28 Median,[6],11.33 mm³
same,"Xenograft AMO-1 (DSMZ) (mm³) Day 34, individual animal tumor volume","25 mg/kg Q7Dx2 IV, SCID-beige female mice, Day 34",21 mm³ and 19 mm³
same,Xenograft AMO-1 (DSMZ) (mm³) Day 34 Mean,[7],20.16 mm³
same,Xenograft AMO-1 (DSMZ) (mm³) Day 34 Median,[7],20.16 mm³
same,"Xenograft AMO-1 (DSMZ) (mm³) Day 43, Mean",[8],15.04 mm³
same,"Xenograft AMO-1 (DSMZ) (mm³) Day 43, Median",[8],15.04 mm³
same,"Xenograft AMO-1 (DSMZ) (mm³) Day 43, individual animal tumor volume",[8],15 mm³
same,"Xenograft AMO-1 (DSMZ) tumor volume Day 50, Mean",[9],15.94 mm³
same,"Xenograft AMO-1 (DSMZ) tumor volume Day 50, Median",[9],15.94 mm³
same,"Xenograft AMO-1 (DSMZ) tumor volume Day 50, individual animals",[9],15 mm³ and 17 mm³
same,"Xenograft AMO-1 (DSMZ) tumor volume Day 55, individual animals","25 mg/kg Q7Dx2 IV, SCID-beige female mice, Day 55",13 mm³ and 9 mm³
same,"Xenograft AMO-1 (DSMZ) tumor volume Day 55, Mean",[10],10.76 mm³
same,"Xenograft AMO-1 (DSMZ) tumor volume Day 55, Median",[10],10.76 mm³
same,Xenograft AMO-1 (DSMZ) (mm³) Day 62 (individual animals),[11],198 mm³ and 12 mm³
same,"Xenograft AMO-1 (DSMZ) (mm³) Day 62, Mean",[11],104.96 mm³
same,"Xenograft AMO-1 (DSMZ) (mm³) Day 62, Median",[11],104.96 mm³
same,Xenograft AMO-1 (DSMZ) (mm³) Day 64 (individual animals),[12],249 mm³ and 21 mm³
same,"Xenograft AMO-1 (DSMZ) (mm³) Day 64, Mean",[12],134.75 mm³
same,"Xenograft AMO-1 (DSMZ) (mm³) Day 64, Median",[12],134.75 mm³
same,"Mortality Observation Day 68, individual animal",[13],EUTV
same,"Xenograft AMO-1 (DSMZ) (mm³) Day 68, individual animal tumor volume",[13],1794 mm³ and 24 mm³
same,"Xenograft AMO-1 (DSMZ) (mm³) Day 68, Mean",[14],908.91 mm³
same,"Xenograft AMO-1 (DSMZ) (mm³) Day 68, Median",[14],908.91 mm³
same,"Xenograft AMO-1 (DSMZ) tumor volume Day 13, Mean",[15],225.47 mm³
same,"Xenograft AMO-1 (DSMZ) tumor volume Day 13, Median",[15],225.47 mm³
same,"Xenograft AMO-1 (DSMZ) tumor volume Day 13, individual animals",[15],233 mm³ and 218 mm³
same,"Xenograft AMO-1 (DSMZ) (mm³) Day 40, Mean","25 mg/kg Q7Dx2 IV, SCID-beige mice, Day 40, group mean of remaining animals",7.70 mm³
same,"Xenograft AMO-1 (DSMZ) (mm³) Day 40, Median","25 mg/kg Q7Dx2 IV, SCID-beige mice, Day 40, group median of remaining animals",7.70 mm³
same,"Xenograft AMO-1 (DSMZ) (mm³) Day 40, individual animal","25 mg/kg Q7Dx2 IV, SCID-beige mice, Day 40, tumor volume of single animals",8 mm³
same,"Xenograft AMO-1 (DSMZ) Day 57, Mean","25 mg/kg Q7Dx2 IV, SCID-beige mice, Day 57, group mean of remaining animals",13.23 mm³
same,"Xenograft AMO-1 (DSMZ) Day 57, Median","25 mg/kg Q7Dx2 IV, SCID-beige mice, Day 57, group median of remaining animals",13.23 mm³
same,"Xenograft AMO-1 (DSMZ) (mm³) Day 36, Mean","25 mg/kg Q7Dx2 IV, group mean of remaining animals, SCID-beige mice, Day 36",10.51 mm³
same,Xenograft AMO-1 (DSMZ) (mm³) Day 32 Mean,"25 mg/kg Q7Dx2 IV, group mean tumor volume, Day 32",48.75 mm³
same,"Xenograft AMO-1 (DSMZ) (mm³) Day 36, Median","25 mg/kg Q7Dx2 IV, group median of remaining animals, SCID-beige mice, Day 36",10.51 mm³
same,Xenograft AMO-1 (DSMZ) (mm³) Day 32 Median,"25 mg/kg Q7Dx2 IV, group median tumor volume, Day 32",48.75 mm³
same,Xenograft AMO-1 (DSMZ) (mm³) Day 32,"25 mg/kg Q7Dx2 IV, individual animal tumor volume, Day 32",94 mm³ and 4 mm³
same,Xenograft AMO-1 (DSMZ) (mm³) Day 36,"25 mg/kg Q7Dx2 IV, individual animal tumor volume, SCID-beige mice, Day 36",11 mm³
